# According to ChEMBL document CHEMBL3259527, “Synthesis and molecular docking studies of potent α-glucosidase inhibitors based on biscoumarin skeleton” (Eur J Med Chem, 2014):
# Columns and labels:
# [1] = Inhibition of rat intestinal alpha-glucosidase using p-nitrophenyl-alpha-D-glucopyranoside assessed as release of p-nitrophenol after 5 mins by spectrophotometric analysis
# Rattus norvegicus = species: Rattus norvegicus; assay: Ratio of acarbose IC50 to compound IC50 for rat intestinal alpha-glucosidase using p-nitrophenyl-alpha-D-glucopyranoside assessed as release of p-nitrophenol after 5 mins by spectrophotometric analysis
SMILES,IC50 [1] [µM],Ratio IC50 (Rattus norvegicus)
Cc1ccc2oc(=O)c(C(c3cccc(O)c3)c3c(O)c4cc(C)ccc4oc3=O)c(O)c2c1,52.6,–
CSc1ccc(C(c2c(O)c3cc(C)ccc3oc2=O)c2c(O)c3cc(C)ccc3oc2=O)cc1,37.4,–
O=c1oc2ccc(Cl)cc2c(O)c1C(c1ccc(Cl)cc1Cl)c1c(O)c2cc(Cl)ccc2oc1=O,16.5,54
O=c1oc2ccc(Cl)cc2c(O)c1C(c1ccccc1[N+](=O)[O-])c1c(O)c2cc(Cl)ccc2oc1=O,80.9,–
Cc1ccc2oc(=O)c(C(c3cccc([N+](=O)[O-])c3)c3c(O)c4cc(C)ccc4oc3=O)c(O)c2c1,68,–
COc1cc(C(c2c(O)c3cc(Cl)ccc3oc2=O)c2c(O)c3cc(Cl)ccc3oc2=O)ccc1O,113,–
COc1cc(C(c2c(O)c3cc(C)ccc3oc2=O)c2c(O)c3cc(C)ccc3oc2=O)cc(OC)c1OC,386,–
COc1ccc(C(c2c(O)c3cc(Cl)ccc3oc2=O)c2c(O)c3cc(Cl)ccc3oc2=O)cc1OC,91.4,–
COc1ccc(C(c2c(O)c3cc(Cl)ccc3oc2=O)c2c(O)c3cc(Cl)ccc3oc2=O)cc1O,83.6,–
COc1ccc(C(c2c(O)c3cc(Cl)ccc3oc2=O)c2c(O)c3cc(Cl)ccc3oc2=O)cc1,75.7,–
O=c1oc2ccc(Cl)cc2c(O)c1C(c1cccc(O)c1)c1c(O)c2cc(Cl)ccc2oc1=O,84.1,–
CCOc1cc(C(c2c(O)c3cc(C)ccc3oc2=O)c2c(O)c3cc(C)ccc3oc2=O)ccc1O,222,–
COc1ccc(C(c2c(O)c3cc(C)ccc3oc2=O)c2c(O)c3cc(C)ccc3oc2=O)cc1,107,–
CCOc1cc(C(c2c(O)c3cc(Cl)ccc3oc2=O)c2c(O)c3cc(Cl)ccc3oc2=O)ccc1O,57.1,–
COc1cc(C(c2c(O)c3cc(Cl)ccc3oc2=O)c2c(O)c3cc(Cl)ccc3oc2=O)cc(OC)c1OC,128,–
Cc1ccc2oc(=O)c(C(c3ccccc3[N+](=O)[O-])c3c(O)c4cc(C)ccc4oc3=O)c(O)c2c1,129,–
C[C@H]1O[C@H](O[C@H]2[C@H](O)[C@@H](O)[C@@H](O[C@H]3[C@H](O)[C@@H](O)C(O)O[C@@H]3CO)O[C@@H]2CO)[C@H](O)[C@@H](O)[C@@H]1N[C@H]1C=C(CO)[C@@H](O)[C@H](O)[C@H]1O (stereo partly specified) [ACARBOSE],906,–
O=c1oc2ccc(Cl)cc2c(O)c1C(c1cccc([N+](=O)[O-])c1)c1c(O)c2cc(Cl)ccc2oc1=O,27.1,33
Cc1ccc2oc(=O)c(C(c3ccc([N+](=O)[O-])cc3)c3c(O)c4cc(C)ccc4oc3=O)c(O)c2c1,79.2,–
